Results published in PubChem BioAssay (NCI).
Values joined by “and” are separate entries in the source; they are usually repeats but may differ in a detail not shown here. Equal entries are not always repeated.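 Test compounds were applied to cells in 96-well plates for 48 hours at 5 doses. Here, GI50 denotes the concentration required for 50% inhibition of growth. Definition used: TGI = concentration required for complete inhibition of growth.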 *1 amine or outer side, *2 acyl side, *3 side chain or, on linkers, in order; H or OH if unused. Where a SMILES comes first, the peptide text is derived from it. Bridges are numbered along the chain shown (N, C = ends). Roman numbers before positions name the chains, in order. [ ]: non-standard residue; d: D form. Actinocin(9to1) = Cc1c2oc3c(C)ccc(C(=O)[*:1])c3nc-2c(C(=O)[*:2])c(N)c1=O; NMeT = CN[CH](C(=O)O)[CH](C)O; Sar = CNCC(=O)O

What was measured:
Experiment in all cases: inhibition of tumour cell growth, NCI panel, 48 h
A549 NSCLC = test system: A549 NSCLC
ACHN renal = test system: ACHN renal
HL-60(TB) leukemia = test system: HL-60(TB) leukemia
LXFL 529 NSCLC = test system: LXFL 529 NSCLC
M14 melanoma = test system: M14 melanoma
NCI-H522 lung = test system: NCI-H522 lung
OVCAR-4 ovarian = test system: OVCAR-4 ovarian
SF-295 CNS = test system: SF-295 CNS
HCT-116 colon = test system: HCT-116 colon
DLD-1 colon = test system: DLD-1 colon

Compound	TGI (A549 NSCLC) [µM]	TGI (ACHN renal) [µM]	TGI (HL-60(TB) leukemia)	TGI (LXFL 529 NSCLC) [µM]	TGI (M14 melanoma) [µM]	TGI (NCI-H522 lung)	TGI (OVCAR-4 ovarian)	TGI (SF-295 CNS) [µM]	TGI (HCT-116 colon) [µM]	TGI (DLD-1 colon) [µM]	GI50 (A549 NSCLC)	GI50 (ACHN renal) [µM]	GI50 (HCT-116 colon) [µM]	GI50 (HL-60(TB) leukemia)	GI50 (M14 melanoma)	GI50 (NCI-H522 lung) [µM]	GI50 (OVCAR-4 ovarian)	GI50 (SF-295 CNS) [µM]
COc1ccc2c3c([nH]c2c1[N+](=O)[O-])C(C)N(Cc1ccc([N+](=O)[O-])cc1)CC3 (stereo not drawn)	> 100	> 100	17.9 µM	59.8	35.9	20.8 µM	12.2 µM	43	–	–	–	–	–	–	–	–	–	–
COc1ccc(-c2cc(=O)c3ccccc3o2)cc1N	> 100	> 100	47.9 µM	> 100	> 100	77.6 µM	> 100 µM	> 100	> 100	–	–	–	–	–	–	–	–	–
O=C(O)NC(c1ccccc1)C(NC(=O)c1ccccc1)c1ccccc1 (stereo not drawn)	> 100	> 100	–	–	–	–	> 100 µM	> 100	> 100	> 100	–	–	–	–	–	–	–	–
CCCN(CCC)c1ccc(/C=C/c2ccc3cc(OCC)ccc3n2)cc1	> 100	> 100	> 100 µM	–	> 100	> 100 µM	> 100 µM	> 100	> 100	–	75.4 µM	63.4	31.6	20.3 µM	> 100 µM	35.1	72.7 µM	22.7
O=C1CC(=O)N(C(=O)c2nn(-c3ccc(Cl)cc3)cc2O)N1	> 100	> 100	4.08 µM	–	27.8	3.17 µM	> 100 µM	> 100	> 100	–	0.36 µM	0.544	0.34	0.751 µM	0.651 µM	0.299	1.51 µM	0.17
C/C(=N\Nc1cc(C)c2ccccc2n1)c1ccccn1	1.17	1.14	0.155 µM	–	1.2	0.319 µM	2.22 µM	0.499	1.29	–	0.0714 µM	< 0.0374	< 0.0401	< 0.0365 µM	0.066 µM	0.0534	–	–
C[C@@H](O)[C@H](NC(=O)N[C@@H](CC(N)=O)c1nc([C@@H](N)CO)no1)C(=O)O	> 100	> 100	> 100 µM	–	> 100	> 100 µM	> 100 µM	> 100	> 100	–	> 100 µM	> 100	> 100	> 100 µM	> 100 µM	> 100	> 100 µM	> 100
Cc1c2oc3c(C)ccc(C(=O)NC4C(=O)NC(C(C)C)C(=O)N5CCCC5C(=O)N(C)CC(=O)N(C)C(C(C)O)C(=O)OC4C)c3nc-2c(C(=O)NC2C(=O)NC(C(C)C)C(=O)N3CCCC3C(=O)N(C)CC(=O)N(C)C(C(C)O)C(=O)OC2C)c(N)c1=O (stereo not drawn) (I: TVP[Sar][NMeT] / II: TVP[Sar][NMeT]; ester I:1-I:C, II:1-II:C; linker I:N-II:N via Actinocin(9to1); configuration not given here)	> 100	> 26.6	28.1 µM and > 1 µM	–	> 56.9	1.53 µM and > 1 µM	32.4 µM and > 1 µM	> 100	> 100	–	2.86 µM and > 1 µM	–	–	3 µM and > 1 µM	7.14 µM and > 1 µM	–	6.1 µM and > 1 µM	–
CCN(Cc1ccccc1)c1ccc(CO)c(Cl)c1	25.4	> 100	46.7 µM	–	> 65.1	63.4 µM	12.1 µM	> 56	10.2	–	2.18 µM	30.2	0.11	11.1 µM	20.1 µM	17.4	0.416 µM	1
N#CC1=C(N)Oc2c(ccc3ccccc23)C1c1ccccc1 (stereo not drawn)	18.3	14.8	0.274 µM	–	13.6	1.7 µM	14.5 µM	11.6	3.73	–	0.0845 µM	0.0681	0.0443	0.0295 µM	0.0348 µM	0.0226	0.063 µM	0.0299
CC1=C(C(=O)Nc2ccc(Cl)c(Cl)c2)C(c2cccc(Cl)c2)NC(=O)N1 (stereo not drawn)	> 50	20.8	> 35.7 µM	–	16.1	18.5 µM	> 50 µM	5.12	> 50	–	17.3 µM	9.07	12	10.6 µM	7.79 µM	9.53	14.1 µM	1.04
C=C1C(=O)O[C@H]2[C@H]1CC/C(COC(=O)C(=O)c1cn(C)c3ccc(Cl)cc13)=C\CC[C@@]1(C)O[C@@H]21	4.82	2.5	4.09 µM	–	2.74	2.68 µM	12.4 µM	10.3	2.69	–	2.2 µM	1.07	1.24	1.25 µM	1.11 µM	1.24	2.26 µM	2.88
O=C(O)c1ccc(Oc2nccc(-c3c(-c4ccc(F)cc4)ncn3C3CCNCC3)n2)cc1	> 25	> 25	> 25 µM	–	> 25	> 25 µM	> 25 µM	> 25	> 25	–	> 25 µM	> 25	> 25	> 25 µM	> 25 µM	> 25	> 25 µM	> 25
CC(=C/C=C/C=C(C)\C=C\C=C(\C)C(=O)O)/C=C/C=C(/C)C(=O)O	> 100	> 100	> 100 µM	–	> 100	> 100 µM	> 100 µM	> 100	> 100	–	–	–	–	–	–	–	–	–
O=c1cc(N2CCN(CCCCCOc3cc(O)c4c(=O)cc(-c5ccccc5)oc4c3)CC2)c2ccccc2o1	> 100	> 100	> 100 µM	–	> 100	> 100 µM	> 100 µM	> 100	> 100	–	> 100 µM	> 100	25.4	17.5 µM	53.2 µM	> 100	62.7 µM	> 100
COc1cc2c(cc1OC)-c1ccc3cc4c(cc3c1N(CCCn1ccnc1)C2)OCO4	32.1	65.9	5.71 µM	–	15.6	3.35 µM	31.9 µM	75.6	16.2	–	8.39 µM	10.1	2.93	1.92 µM	3.5 µM	0.565	4.81 µM	2.8

Compound	TGI (A549 NSCLC) [µM]	TGI (ACHN renal) [µM]	TGI (HL-60(TB) leukemia)	TGI (LXFL 529 NSCLC) [µM]	TGI (M14 melanoma) [µM]	TGI (NCI-H522 lung)	TGI (OVCAR-4 ovarian)	TGI (SF-295 CNS) [µM]	TGI (HCT-116 colon) [µM]	TGI (DLD-1 colon) [µM]	GI50 (A549 NSCLC)	GI50 (ACHN renal) [µM]	GI50 (HCT-116 colon) [µM]	GI50 (HL-60(TB) leukemia)	GI50 (M14 melanoma)	GI50 (NCI-H522 lung) [µM]	GI50 (OVCAR-4 ovarian)	GI50 (SF-295 CNS) [µM]
C=C(C#N)C1OCC2OC(C)(C)OC21 (stereo not drawn)	> 100	42.4	43 µM	–	30.5	–	33.6 µM	> 100	38.4	34.4	–	–	–	–	–	–	–	–
C=C1C(=O)O[C@H]2[C@H]1CC/C(COC(=O)c1cc3ccccc3o1)=C\CC[C@@]1(C)O[C@@H]21	12	2.76	3.68 µM	–	3.13	2.39 µM	3.98 µM	19.1	1.3	–	2.91 µM	1.44	0.32	1.22 µM	1.43 µM	0.68	1.56 µM	5.9
Cc1ccc(Cc2cnc(NC(=O)/C=C/c3cccc(C)c3)s2)cc1	> 67.7	4.66	0.559 µM	–	0.843	> 100 µM	4.71 µM	0.558	2.4	–	0.29 µM	0.278	0.0746	0.0933 µM	0.0808 µM	0.151	0.842 µM	0.0786
CS(=O)(=O)CCNCc1ccc(-c2ccc3ncnc(Nc4ccc(OCc5ccccc5)c(Br)c4)c3c2)o1	> 25	> 25	15.9 µM	–	10.3	10.6 µM	> 25 µM	12.8	11.8	–	8.81 µM	1.13	5.26	6.81 µM	4.98 µM	3.86	15.5 µM	5.26
Cc1nc2sc(C(=O)Nc3cccc4ccccc34)c(N)c2cc1C(O)c1ccccc1 (stereo not drawn)	> 100	19.2	0.194 µM	–	15	11.4 µM	44.2 µM	4.42	10.9	–	0.0916 µM	0.0726	0.0439	0.0376 µM	0.0409 µM	0.048	0.215 µM	0.0513
Cc1ccc2c(-c3ccnc(Nc4ccccc4)n3)c(-c3ccc(F)cc3)nn2n1	> 25	> 25	> 25 µM	–	> 25	13.9 µM	> 25 µM	> 25	14.6	–	5.28 µM	1.26	4.48	9.56 µM	9.56 µM	4.34	11.1 µM	11.3
C[C@]12CC[C@@H]3c4cc(-c5ccc(F)cc5)c(O)cc4CC[C@H]3[C@@H]1CC[C@@H]2O	22.9	18.9	28.5 µM	–	34.5	16.7 µM	17.1 µM	17.6	22	–	6.17 µM	5.86	5.65	8.17 µM	14.2 µM	3.79	4.04 µM	3.98
Cc1cc(-c2nc3sccn3c2/C=N/N=C(N)N)c(C)s1	51	36.8	> 100 µM	–	29.3	32 µM	35.3 µM	26.3	25.3	–	25.5 µM	19.1	12.7	15.6 µM	15.8 µM	15.7	16.2 µM	13.5
CC(=O)N1C/C(=C/c2ccc(Cl)cc2)C(=O)/C(=C/c2ccc(Cl)cc2)C1	4.5	2.05	3.95 µM	–	2.11	2.83 µM	3.22 µM	3.02	0.465	–	0.633 µM	0.769	0.202	0.924 µM	0.735 µM	1.35	0.795 µM	1.08
O=C(CCc1nnc2s/c(=C\c3ccc(Cl)c(Cl)c3)c(=O)n12)Nc1ccc(Cl)c(Cl)c1	> 100	> 100	64 µM	> 100	> 100	65.3 µM	> 100 µM	> 100	> 100	–	–	–	–	–	–	–	–	–
CNC(=O)c1ccc(N2C(=S)N(c3ccc(C#N)c(C(F)(F)F)c3)C(=O)C2(C)C)cc1F	> 95.4	> 62.9	> 100 µM	–	> 65.3	> 100 µM	> 100 µM	> 75.9	> 58.2	–	33.6 µM	22.4	23.9	33.7 µM	32.4 µM	50.9	31.8 µM	28.9
C[C@]12CCC(=O)C(O)=C1CC[C@@H]1C2CC[C@]2(C)NC(=O)CCC12 (stereo partly drawn)	> 100	> 100	> 100 µM	> 100	> 100	> 100 µM	> 100 µM	> 100	> 100	–	–	–	–	–	–	–	–	–
COc1ccc(-c2cc(-c3ccc(Cl)cc3)nc(SCCCC(=O)NO)n2)cc1	7.95	1.88	> 23 µM	–	3.12	3.26 µM	11.6 µM	2.23	> 100	–	1.57 µM	0.379	0.563	1.65 µM	0.786 µM	0.704	0.849 µM	0.537
COc1ccc(-c2oc(=O)ccc2-c2cc(OC)c(OC)c(OC)c2)cc1O	> 100	> 95.2	2.03 µM	–	30.4	3.45 µM	> 100 µM	> 100	> 86.6	–	3.41 µM	5.05	0.736	0.407 µM	0.833 µM	0.425	6.65 µM	1.26
O=C1O[C@H](c2ccccc2)[C@@H]2CC3(CCN12)OCCO3	> 100	> 100	> 100 µM	> 100	> 100	7.48 µM	> 100 µM	> 100	> 100	–	–	–	–	–	–	–	–	–
